These results are taken from US11633444B2, “Sporoderm-removed Ganoderma lucidum spore powder, granule and preparation method thereof” (ZHEJIANG SHOUXIANGU PHARMACEUTICAL COMPANY, LTD, priority 2017, dated 2023).

Structures can show the parent of a compound that is named as a salt.

Common to all, as to type: in vivo
The test system of test [1] is human gastric cancer (SGC-7901) transplanted tumor. Description: Zebrafish human gastric cancer (SGC-7901) transplanted tumor model. The conditions noted are these: SGC-7901, 50 μM, 2 days at 35° C., n = 10. An excerpt:
Human gastric cancer (SGC-7901) cells were labeled with a red fluorescent dye (CM-Dil), and transplanted into zebrafish yolk sacs by microinjection, with about 200 cells being transplanted per zebrafish, so as to establish a zebrafish human gastric cancer transplanted tumor model.
Human gastric cancer (SGC-7901) cells were labeled with CM-Dil, and transplanted into 2 dpf wild type AB strain zebrafish yolk sacs by microinjection, with about 200 cells being transplanted per zebrafish, so as to establish a zebrafish human gastric cancer (SGC-7901) transplanted model; and the zebrafishes injected with the SGC-7901 cells were fed at 35° C. until 3 dpf.
(§1) Zebrafishes with better consistence in transplanted tumor cells were picked out under a microscope, randomly assigned to a 6-well plate, and were given in a water-dissolving administration manner respectively with the samples at concentrations respectively of 28, 83 and 250 μg/mL and the positive control drug cis-platinum at a concentration of 50 μM; and meanwhile a model control group was set, where there were 30 zebrafishes per well (concentration group), and the volume of each well was 5 mL. The zebrafishes in each experiment (concentration) group were continually cultured at 35° C., and after 2 days, 10 zebrafishes were randomly selected from each experiment (concentration) group to observe under a fluorescence microscope, and photographs of the 10 zebrafishes were taken and saved; and the photographs were analyzed using Nikon NIS-Elements D 3.10 Advanced image processing software to calculate the fluorescence intensities of cancer cells. The inhibitory effects of samples on the zebrafish gastric cancer (SGC-7901) transplanted tumor were respectively evaluated with the fluorescence intensities, and the tumor inhibition effect was calculated using the following equation. […]

The test system of test [2] is human lung adenocarcinoma (A549) transplanted tumor. Put plainly: Zebrafish human lung adenocarcinoma (A549) transplanted tumor model. The conditions noted are these: A549, 50 μM, 2 days at 35° C., n = 10.
From the text: Human lung adenocarcinoma (A549) cells were labeled with a red fluorescent dye (CM-Dil), and transplanted into zebrafish yolk sacs by microinjection, with about 200 cells being transplanted per zebrafish, so as to establish a zebrafish human lung adenocarcinoma transplanted tumor model.
Human lung adenocarcinoma (A549) cells were labeled with CM-Dil, and transplanted into 2 dpf wild type AB strain zebrafish yolk sacs by microinjection, with about 200 cells being transplanted per zebrafish, so as to establish a zebrafish human lung adenocarcinoma (A549) transplanted model; and the zebrafishes injected with the A549 cells were fed at 35° C. until 3 dpf.
as §1, with “inhibitory effect” for “inhibitory effects”, “of the sample” for “of samples”, “zebrafish lung adenocarcinoma (A549)” for “zebrafish gastric cancer (SGC-7901)”, “tumor was” for “tumor were respectively”

Test [3] relates to human lymphatic cancer (Ramos) transplanted tumor. Put plainly: Zebrafish human lymphatic cancer (Ramos) transplanted tumor model. The conditions noted are these: 2 days at 35° C.; for Pixel of Sum of Fluorescence Intensities (mean ± SE): 5 μM. An excerpt: Human lymphatic cancer (Ramos) cells were labeled with a red fluorescent dye (CM-Dil), and transplanted into zebrafish yolk sacs by microinjection, with about 200 cells being transplanted per zebrafish, so as to establish a zebrafish human lymphatic cancer transplanted tumor model.
Human lymphatic cancer (Ramos) cells were labeled with CM-Dil, and transplanted into 2 dpf wild type AB strain zebrafish yolk sacs by microinjection, with about 200 cells being transplanted per zebrafish, so as to establish a zebrafish human lymphatic cancer transplanted model; and the zebrafishes injected with the human lymphatic cancer cells were fed at 35° C. until 3 dpf.
Zebrafishes with better consistence in transplanted tumor cells were picked out under a microscope, randomly assigned to a 6-well plate, and were given in a water-dissolving administration manner respectively with the samples at concentrations respectively of 28, 83 and 250 μg/mL and the positive control drug vincristine at a concentration of 5 μM; and meanwhile a model control group was set, where there were 30 zebrafishes per well (concentration group), and the volume of each well was 5 mL. The zebrafishes in each experiment group were continually cultured at 35° C., and after 2 days, 10 zebrafishes were randomly selected from each experiment group to observe under a fluorescence microscope, and photographs of the 10 zebrafishes were taken and saved; and the photographs were analyzed using Nikon NIS-Elements D 3.10 Advanced image processing software to calculate the fluorescence intensities of cancer cells. The inhibitory effect of the sample on the zebrafish lymphatic cancer (Ramos) transplanted tumor was evaluated with the fluorescence intensities, and the tumor inhibition effect was calculated using the following equation.
A concentration-effect curve was drawn according to a growth inhibition effect on the transplanted tumor; statistical analysis was performed by variance analysis and Dunnett's T-test, where p<0.05 was considered as a significant difference; such that a representative experimental map was provided.

A word on the inhibition: it is the drop in the measured response relative to a control, in per cent.

For the molecule `N.N.[Cl][Pt][Cl]` [Cis-platinum], the “Inhibition Effect” value in test [1] amounted to 36%; in test [2], 32%. Moreover, the “Pixel of Sum of Fluorescence Intensities (mean ± SE)” value in test [1] is on record as 237655 ± 12361 pixels; in test [1] (listed as cis-platinum), 237,655 pixels; in test [2], 137287 ± 7835 pixels; in test [2] (listed as cis-platinum) it was 137,287 pixels.

`CC[C@]1(O)C[C@H]2CN(CCc3c([nH]c4ccccc34)[C@@](C(=O)OC)(c3cc4c(cc3OC)N(C=O)[C@H]3[C@@](O)(C(=O)OC)[C@H](OC(C)=O)[C@]5(CC)C=CCN6CC[C@]43[C@@H]65)C2)C1` [Vincristine, Vincristine sulfate]: the “Pixel of Sum of Fluorescence Intensities (mean ± SE)” value in test [3] (n = 10) is recorded as 153919 ± 13691 pixels; in test [3] (n = 10, listed as vincristine) it was 153,919 pixels. Also, in test [3] (Danio rerio, 48 h, n = 10, read-out: Inhibition Effect), the inhibition at 5 µM was determined as 33%.
